Results reported in US20170119776A1, “CHIRAL 2,5-DISUBSTITUTED CYCLOPENTANECARBOXYLIC ACID DERIVATIVES AND USE THEREOF” (BAYER PHARMA AKTIENGESELLSCHAFT, priority 2014, published 2017).
pIC50: −log10 of the molar value.

Columns and labels:
Assay type in all cases: biochemical
[1] = target: T1, MMP-10 (Homo sapiens, UniProt P09238); assay: In vitro MMP-10 inhibition test
T1 construct: purchased R&D Systems 910-MP
Description: (§1) The activity strength of the compounds according to the invention towards other MMPs (and therefore their selectivity) is likewise ascertained in in vitro inhibition tests. The MMP-mediated amidolytic cleavage of a suitable peptide substrate also leads here to a fluorescent light increase. The signal intensity of the fluorescent light is directly proportional to the enzyme activity. The active concentration of a test compound at which half of the enzyme is inhibited (50% signal intensity of the fluorescent light) is given as IC50 value.
Recombinant MMP-10 (R&D Systems, 910-MP) is chemically activated in accordance with the manufacturer's instructions using APMA. 1 μl of the test compound to be analysed (as a solution in DMSO, suitable concentrations e.g. 1 nM to 30 μM) is pipette into 24 μl of activated enzyme (final concentration e.g. 2 nM) in reaction buffer (50 mM Tris/HCl pH 7.5, 10 mM CaCl2, 150 mM NaCl, 0.05% Brij®-35) in a white 384-hole microtiter plate (MTP). The enzymatic reaction is started by adding the intramolecularly quenched substrate Mca-Arg-Pro-Lys-Pro-Val-Glu-Nval-Trp-Arg-Lys(Dnp)-NH2 (final concentration e.g. 10 μM; R&D Systems, ES-002), such that a total test volume of 50 μl results. The progress of the MMP-10 reaction is measured by measuring the fluorescence intensity (excitation 320 nm, emission 410 nm) over a suitable period (e.g. over 120 min at a temperature of 32° C.).
(§2) The IC50 values were determined for racemates and enantiomers from differently generated DMSO stock solutions. Whereas an automatically produced DMSO stock solution from the internal substance logistics was used for racemates by means of a standard method, in the case of enantiomers a freshly produced, manually prepared DMSO stock solution was used in each case for a more precise direct comparison of the enantiomers with one another.

[2] = target: T2, MMP-14 (Homo sapiens, UniProt P50281); assay: In vitro MMP-14 inhibition test
T2 construct: purchased R&D Systems 918-MP
Description: as §1
Recombinant MMP-14 (R&D Systems, 918-MP) is enzymatically activated in accordance with the manufacturer's instructions using recombinant furin (R&D Systems, 1503-SE). 1 μl of the test compound to be analysed (as a solution in DMSO, suitable concentrations e.g. 1 nM to 30 μM) is pipette into 24 μl of activated enzyme (final concentration e.g. 0.5 nM) in reaction buffer (50 mM Tris/HCl pH 7.5, 10 mM CaCl2, 150 mM NaCl, 0.05% Brij®-35) in a white 384-hole microtiter plate (MTP). The enzymatic reaction is started by adding the intramolecularly quenched substrate Mca-Lys-Pro-Leu-Gly-Leu-Dpa(Dnp)-Ala-Arg-NH2 (final concentration e.g. 5 μM; R&D Systems, ES-010), such that a total test volume of 50 μl results. The progress of the MMP-14 reaction is measured by measuring the fluorescence intensity (excitation 320 nm, emission 410 nm) over a suitable period (e.g. over 120 min at a temperature of 32° C.).
as §2

[3] = target: T3, MMP-12 of the mouse (Mus musculus, UniProt P34960); assay: In vitro MMP-12 inhibition test of the mouse (standard / high-sensitivity)
T3 construct: purchased R&D Systems 3467-MP
Description: as §1
Recombinant MMP-12 of the mouse (R&D Systems, 3467-MP) is autocatalytically activated in accordance with the manufacturer's instructions. 1 μl of the test compound to be analysed (as a solution in DMSO, suitable concentrations e.g. 1 nM to 30 μM) is pipetted into 24 μl of activated enzyme (final concentration e.g. 1 nM) in reaction buffer (50 mM Tris/HCl pH 7.5, 10 mM CaCl2, 150 mM NaCl, 0.05% Brij®-35) in a white 384-hole microtiter plate (MTP). The enzymatic reaction is started by adding the intramolecularly quenched substrate Mca-Lys-Pro-Leu-Gly-Leu-Dpa(Dnp)-Ala-Arg-NH2 (final concentration e.g. 5 μM; R&D Systems, ES-010), such that a total test volume of 50 μl results. The progress of the MMP-12 reaction is measured by measuring the fluorescence intensity (excitation 320 nm, emission 410 nm) over a suitable period (e.g. over 120 min at a temperature of 32° C.).
If subnanomolar IC values are produced for high-potency test substances in the above-described MMP-12 inhibition test of the mouse, then a modified test is used for their more precise determination. Here, a ten-fold lower enzyme concentration is used (final concentration e.g. 0.1 nM), in order to achieve an increased sensitivity of the test. The incubation time of the test is correspondingly chosen to be longer (e.g. 16 hours).
Tables 3A and 3B below give the IC50 values from these tests for the inhibition of rodent MMPs for representative embodiment examples of the present invention and also for two structurally related comparison compounds from the prior art (as racemate and separated enantiomer)→(in part as average values from several independent individual determinations and rounded to two significant places). The IC50 values were determined for racemates and enantiomers from differently generated DMSO stock solutions. Whereas an automatically created DMSO stock solution from the internal substance logistics was used for racemates by means of a standard method, in the case of enantiomers, in each case a freshly produced, manually prepared DMSO stock solution was used for a more precise direct comparison of the enantiomers with one another.

T3 sequence (P34960 110-473): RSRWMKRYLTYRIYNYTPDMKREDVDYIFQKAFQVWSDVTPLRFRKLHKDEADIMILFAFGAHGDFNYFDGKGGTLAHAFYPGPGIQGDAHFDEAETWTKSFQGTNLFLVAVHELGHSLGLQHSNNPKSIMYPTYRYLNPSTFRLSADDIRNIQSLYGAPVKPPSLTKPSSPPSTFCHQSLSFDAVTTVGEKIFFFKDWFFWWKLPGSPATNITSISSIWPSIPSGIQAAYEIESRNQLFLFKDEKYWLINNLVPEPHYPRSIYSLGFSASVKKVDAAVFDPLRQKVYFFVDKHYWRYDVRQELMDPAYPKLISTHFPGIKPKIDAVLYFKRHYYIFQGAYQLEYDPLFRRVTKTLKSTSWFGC
T1 sequence (P09238 99-476): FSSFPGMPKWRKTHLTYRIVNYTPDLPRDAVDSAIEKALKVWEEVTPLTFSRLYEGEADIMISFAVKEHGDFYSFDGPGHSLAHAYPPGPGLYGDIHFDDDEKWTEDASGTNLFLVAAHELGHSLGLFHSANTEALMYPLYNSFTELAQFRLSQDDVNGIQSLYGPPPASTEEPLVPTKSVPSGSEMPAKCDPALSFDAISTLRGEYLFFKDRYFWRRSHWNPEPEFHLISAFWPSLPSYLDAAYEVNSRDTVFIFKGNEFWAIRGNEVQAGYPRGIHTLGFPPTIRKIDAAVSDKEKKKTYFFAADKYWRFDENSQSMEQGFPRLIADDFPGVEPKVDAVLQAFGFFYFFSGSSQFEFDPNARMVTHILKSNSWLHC

Structure (SMILES)	pIC50 [1]	pIC50 [2]	pIC50 [3]
O=C(O)[C@H]1[C@H](Cn2nnc3ccccc3c2=O)CC[C@@H]1C(=O)c1ccc(OCc2ccccc2)cc1 (racemic) [Example 1, (+/−)-(1RS,2RS,5SR)-2-[4-(Benzyloxy)benzoyl]-5-[(4-oxo-1,2,3-benzotriazin-3(4H)-yl)methyl]cyclopentanecarboxylic acid (racemate)]	7.68	7.57	9.27
CCCCCOc1ccc(C(=O)CC(CCn2nnc3ccccc3c2=O)C(=O)O)cc1 (racemic) [Comparative Example B-1, (+/−)-4-Oxo-2-[2-(4-oxo-1,2,3-benzotriazin-3(4H)-yl)ethyl]-4-[4-(pentyloxy)phenyl]butanoic acid (racemate)]	5.24	5.42	7.49
CCCCCOc1ccc(C(=O)CC(CCn2nnc3ccccc3c2=O)C(=O)O)cc1 (single isomer, unassigned; enantiomer 1) [Comparative Example B-2, (+)-4-Oxo-2-[2-(4-oxo-1,2,3-benzotriazin-3(4H)-yl)ethyl]-4-[4-(pentyloxy)phenyl]butanoic acid (enantiomer 1)]	5.72	5.89	7.74
O=C(O)[C@H]1[C@H](Cn2nnc3ccccc3c2=O)CC[C@@H]1C(=O)c1ccc(OCc2ccccc2)cc1 [Example 2, (+)-(1S,2S,5R)-2-[4-(Benzyloxy)benzoyl]-5-[(4-oxo-1,2,3-benzotriazin-3(4H)-yl)methyl]cyclopentanecarboxylic acid]	7.76	7.82	9.89

These reach a higher pIC50 [1]. Values come first.

pIC50 [1]	pIC50 [2]	pIC50 [3]	Structure (SMILES)
8.34	8.54	> 9.21	O=C(O)[C@H]1[C@H](Cn2nnc3ccccc3c2=O)CC[C@@H]1C(=O)c1ccc(-c2ccc(Cl)cc2)cc1 (racemic) [Comparative Example A-1, (1RS,2RS,5SR)-2-[(4′-chlorobiphenyl-4-yl)carbonyl]-5-[(4-oxo-1,2,3-benzotriazin-3(4H)-yl)methyl]cyclopentanecarboxylic acid (racemate)]
> 9.21	8.92	10.00	O=C(O)[C@@H]1[C@@H](Cn2nnc3ccccc3c2=O)CC[C@H]1C(=O)c1ccc(-c2ccc(Cl)cc2)cc1 (single isomer, unassigned; enantiomer 2) [Comparative Example A-3, (1RS,2RS,5SR)-2-[(4′-Chlorobiphenyl-4-yl)carbonyl]-5-[(4-oxo-1,2,3-benzotriazin-3(4H)-yl)methyl]cyclopentanecarboxylic acid (enantiomer 2)]
